Assay results taken from patent publication US7202255B2, “Substituted [1,4] benzodioxino[2,3-e] isoindole derivatives, method for preparing and pharmaceutical compositions containing same” (Les Laboratoires Servier, priority 2002, dated 2007).
Structures can show the parent of a compound that is named as a salt.

For `CN(C)CCn1c(=O)c2c3oc4ccccc4oc3c3[nH]c4cc(O)ccc4c3c2c1=O` [Example 24, 7-[2-(Dimethylamino)ethyl]-11-hydroxy[1,4]benzodioxino[2,3-a]-pyrrolo[3,4-c]carbazole-6,8(7H,13H)-dione], the melting point was > 360 °C.
`CN1C(=O)c2c(Oc3ccccc3OS(=O)(=O)C(F)(F)F)cc3c(c2C1=O)c1ccccc1n3C(=O)OC(C)(C)C` [Example 37, tert-Butyl 2-methyl-1,3-dioxo-4-(2-{[(trifluoromethyl)sulphonyl]-oxy}phenoxy)-2,3-dihydropyrrolo[3,4-c]carbazole-6(1H)-carboxylate] showed a melting point of 182 °C.
In the case of `Cn1c(=O)c2c3oc4ccccc4oc3c3[nH]c4ccc(O)cc4c3c2c1=O` [Example 18, 10-Hydroxy-7-methyl[1,4]benzodioxino[2,3-a]pyrrolo[3,4-c]-carbazole-6,8(7H,13H)-dione], the melting point is reported as > 350 °C.
In the case of `Cn1c(=O)c2c3oc4ccccc4oc3c3[nH]c4cc(O)ccc4c3c2c1=O` [Example 22, 11-Hydroxy-7-methyl[1,4]benzodioxino[2,3-a]pyrrolo[3,4-c]-carbazole-6,8(7H,13H)-dione], the melting point is reported as 360 °C.
For `CN(C)CCn1c(=O)c2c3oc4cccnc4[nH]c3c3oc4ccccc4oc3c2c1=O` [Example 4, 7-[2-(Dimethylamino)ethyl][1,4]benzodioxino[2,3-e]pyrido[2′,3′:5,6]-[1,4]oxazino[3,2-g]isoindole-6,8(7H,15H)-dione], the melting point was 150 °C (dec.).
With `O=c1[nH]c(=O)c2c1c1oc3ccccc3oc1c1[nH]c3cc(O)ccc3c12` [Example 28, 11-Hydroxy[1,4]benzodioxino[2,3-a]pyrrolo[3,4-c]carbazole-6,8(7H,13H)-dione] the melting point was > 340 °C.
In the case of `Cn1c(=O)c2c3oc4ccccc4oc3c3c(oc4ccccc4n3C(=O)Oc3ccccc3)c2c1=O` [Example 1, Phenyl 7-methyl-6,8-dioxo-7,8-dihydro[1,4]benzodioxino[2,3-a]-pyrrolo[3,4-c]phenoxazine-15(6H)carboxylate], the melting point is reported as 130 °C.
For `CN1C(=O)c2c(Oc3ccccc3O)cc3[nH]c4ccc(O)cc4c3c2C1=O` [Example 32, 9-Hydroxy-4-(2-hydroxyphenoxy)-2-methylpyrrolo[3,4-c]-carbazole-1,3(2H,6H)-dione], the melting point was 277 °C (dec.).
With `Cn1c(=O)c2c3oc4ccccc4oc3c3c(c4ccccc4n3C(=O)OC(C)(C)C)c2c1=O` [Example 5, tert-Butyl 7-methyl-6,8-dioxo-7,8-dihydro[1,4]benzodioxino[2,3-a]-pyrrolo[3,4-c]carbazole-13(6H)-carboxylate] the melting point was 189 °C (dec.).
For `CN1C(=O)c2c(Oc3ccccc3O)cc3c(c2C1=O)c1cc(OCc2ccccc2)ccc1n3C(=O)OC(C)(C)C` [Example 31, tert-Butyl 9-(benzyloxy)-4-(2-hydroxyphenoxy)-2-methyl-1,3-dioxo-2,3-dihydropyrrolo[3,4-c]carbazole-6(1H)-carboxylate], the melting point was 170 °C.
With `CN(C)CCn1c(=O)c2c3oc4ccccc4[nH]c3c3oc4ccccc4oc3c2c1=O` [Example 2, 7-[2-(Dimethylamino)ethyl][1,4]benzodioxino[2,3-a]pyrrolo[3,4-c]-phenoxazine-6,8(7H,15H)-dione] the melting point was 150 °C.
`CC(C)(C)OC(=O)n1c2cc(OCc3ccccc3)ccc2c2c3c(c(Oc4ccccc4O)cc21)C(=O)NC3=O` [Example 30, tert-Butyl 8-(benzyloxy)-4-(2-hydroxyphenoxy)-1,3-dioxo-2,3-dihydropyrrolo[3,4-c]carbazole-6(1H)-carboxylate] gave a melting point of 198 °C.
For `CN1C(=O)c2c(Oc3ccccc3O)cc3[nH]c4cc(O)ccc4c3c2C1=O` [Example 41, 8-Hydroxy-4-(2-hydroxyphenoxy)-2-methylpyrrolo[3,4-c]-carbazole-1,3(2H,6H)-dione], the melting point was 200 °C.
With `CN1C(=O)c2c(Oc3ccccc3OS(=O)(=O)C(F)(F)F)cc3[nH]c4ccccc4c3c2C1=O` (as salt: methanesulphonate) [Example 38, 2-[(2-Methyl-1,3-dioxo-1,2,3,6-tetrahydropyrrolo[3,4-c]carbazol-4-yl)oxy]phenyl trifluoromethanesulphonate] the melting point was 214 °C.
In the case of `CN(C)CCn1c(=O)c2c3oc4ccccc4oc3c3[nH]c4cc(F)ccc4c3c2c1=O` [Example 14, 7-[2-(Dimethylamino)ethyl]-11-fluoro[1,4]benzodioxino[2,3-a]-pyrrolo[3,4-c]carbazole-6,8(7H,13H)-dione], the melting point is reported as 301 °C (dec.).
For `CN(C)CCn1c(=O)c2c3oc4ccccc4oc3c3[nH]c4ccc(O)cc4c3c2c1=O` [Example 20, 7-[2-(Dimethylamino)ethyl]-10-hydroxy[1,4]benzodioxino[2,3-a]-pyrrolo[3,4-c]carbazole-6,8(7H,13H)-dione], the melting point was > 360 °C.
With `Cn1c(=O)c2c3oc4ccccc4oc3c3[nH]c4cc(F)ccc4c3c2c1=O` [Example 13, 11-Fluoro-7-methyl[1,4]benzodioxino[2,3-a]pyrrolo[3,4-c]carbazole-6,8(7H,13H)-dione] the melting point was > 360 °C.
In the case of `CN(C)CCn1c(=O)c2c3oc4ccccc4oc3c3[nH]c4ccccc4c3c2c1=O` [Example 7, 7-[2-(Dimethylamino)ethyl][1,4]benzodioxino[2,3-a]pyrrolo[3,4-c]-carbazole-6,8(7H,13H)-dione], the melting point is reported as 298 °C (dec.).
With `CC(C)(C)OC(=O)n1c2ccc(OCc3ccccc3)cc2c2c3c(=O)[nH]c(=O)c3c3oc4ccccc4oc3c21` [Example 25, tert-Butyl 10-(benzyloxy)-6,8-dioxo-7,8-dihydro[1,4]benzo-dioxino[2,3-a]pyrrolo[3,4-c]carbazole-13(6H)-carboxylate] the melting point was > 304 °C.
In the case of `COc1ccccc1Oc1cc2[nH]c3ccccc3c2c2c1C(=O)N(C)C2=O` [Example 35, 4-(2-Methoxyphenoxy)-2-methylpyrrolo[3,4-c]carbazole-1,3(2H,6H)-dione], the melting point is reported as 228 °C.
With `CN(C)CCn1c(=O)c2c3oc4ccccc4oc3c3[nH]c4ccc(OCc5ccccc5)cc4c3c2c1=O` [Example 19, 10-(Benzyloxy)-7-[2-(dimethylamino)ethyl][1,4]benzodioxino[2,3-a]-pyrrolo[3,4-c]carbazole-6,8(7H,13H)-dione] the melting point was 254 °C (dec.).
In the case of `Cn1c(=O)c2c3oc4ccccc4oc3c3c(oc4cccnc4n3C(=O)Oc3ccccc3)c2c1=O` [Example 3, Phenyl 7-methyl-6,8-dioxo-7,8-dihydro[1,4]benzodioxino[2,3-e]-pyrido[2′,3′:5,6][1,4]oxazino[3,2-g]isoindole-15(6H)-carboxylate], the melting point is reported as > 250 °C.
For `COc1ccccc1Oc1cc2c(c3c1C(=O)N(C)C3=O)c1ccccc1n2C(=O)OC(C)(C)C` [Example 34, tert-Butyl 4-(2-methoxyphenoxy)-2-methyl-1,3-dioxo-2,3-dihydropyrrolo[3,4-c]carbazole-6(1H)-carboxylate], the melting point was > 333 °C.
With `CN(C)CCn1c(=O)c2c3oc4ccccc4oc3c3[nH]c4ccc(F)cc4c3c2c1=O` [Example 12, 7-[2-(Dimethylamino)ethyl]-10-fluoro[1,4]benzodioxino[2,3-a]-pyrrolo[3,4-c]carbazole-6,8(7H,13H)-dione] the melting point was 337 °C (dec.).
`CN1C(=O)c2c(Oc3ccccc3O)cc3c(c2C1=O)c1ccc(OCc2ccccc2)cc1n3C(=O)OC(C)(C)C` [Example 39, tert-Butyl 8-(benzyloxy)-4-(2-hydroxyphenoxy)-2-methyl-1,3-dioxo-2,3-dihydropyrrolo[3,4-c]carbazole-6(1H)-carboxylate] gave a melting point of 191 °C.
Molecule `CN1C(=O)c2c(Oc3ccccc3OS(=O)(=O)C(F)(F)F)cc3c(c2C1=O)c1ccc(OCc2ccccc2)cc1n3C(=O)OC(C)(C)C` [Example 40, tert-Butyl 8-(benzyloxy)-2-methyl-1,3-dioxo-4-(2-{[(trifluoro-methyl)sulphonyl]oxy}phenoxy)-2,3-dihydropyrrolo[3,4-c]-carbazole-6(1H)-carboxylate] has a melting point of 186 °C.
With `CN1C(=O)c2c(Oc3ccccc3O)cc3c(c2C1=O)c1ccccc1n3C(=O)OC(C)(C)C` [Example 33, tert-Butyl 4-(2-hydroxyphenoxy)-2-methyl-1,3-dioxo-2,3-dihydropyrrolo[3,4-c]carbazole-6(1H)-carboxylate] the melting point was 182 °C (dec.).
In the case of `CC(C)(C)OC(=O)n1c2cc(OCc3ccccc3)ccc2c2c3c(=O)[nH]c(=O)c3c3oc4ccccc4oc3c21` [Example 27, tert-Butyl 11-(benzyloxy)-6,8-dioxo-7,8-dihydro[1,4]benzo-dioxino[2,3-a]pyrrolo[3,4-c]carbazole-13(6H)-carboxylate], the melting point is reported as 199 °C.
In the case of `CN(C)CCn1c(=O)c2c3oc4ccccc4oc3c3[nH]c4cc(OCc5ccccc5)ccc4c3c2c1=O` [Example 23, 11-(Benzyloxy)-7-[2-(dimethylamino)ethyl][1,4]benzodioxino[2,3-a]-pyrrolo[3,4-c]carbazole-6,8(7H,13H)-dione], the melting point is reported as 262 °C (dec.).
In the case of `Cn1c(=O)c2c3oc4ccccc4oc3c3[nH]c4ccc(F)cc4c3c2c1=O` [Example 11, 10-Fluoro-7-methyl[1,4]benzodioxino[2,3-a]pyrrolo[3,4-c]carbazole-6,8(7H,13H)-dione], the melting point is reported as > 355 °C.
